In data set [1] the test system is Influenza A/New Calcdonia/20/99 (H1N1). The experiment in a line: microbe, parasite or virus in culture. Particulars: H1N1, MDCK.
A short description of data set [2]: in vitro. Particulars: dog.
Data set [3] concerns Human coronavirus (HcoV), strain OC43.
Data set [4] concerns Severe acute respiratory syndrome (SARS) coronavirus, strain Urbani. Nature of the data set: microbe, parasite or virus in culture. Particulars: Severe acute respiratory syndrome-related coronavirus, Vero 76, SARS, Vero 76 cells; PBMC supernatant = indirect, IRM in media = direct.
Data set [5] has as its system humanized, non-lethal influenza virus. The experiment in a line: Viral titers in rats after intranasal pre-infection treatment and influenza challenge. It counts as in vivo, Fisher 344 rats. Particulars: intranasal administration prior to infection, 24 hours after the infection, compared also to IFN-α pretreatment.
Data set [6] concerns Influenza A/New Calcdonia/20/99 (H1N1).
Data set [7] deals with MDCK cells. Particulars: Influenza A (H1N1) test.
Data set [8] deals with Influenza A/Panama/2007/99 (H3N2).
Data set [9] has the same test system. Nature of the data set: microbe, parasite or virus in culture. To be noted: H3N2, MDCK.
A short description of data set [10]: in vitro. To be noted: African green monkey.
In data set [11] the test system is Human coronavirus (HcoV), strain OC43. Nature of the data set: microbe, parasite or virus in culture. Particulars: unidentified human coronavirus, OC43, BSC-1.
Data set [12] has as its system Severe acute respiratory syndrome (SARS) coronavirus, strain Urbani.

In the case of `CCOCc1nc2c(N)nc3ccccc3c2n1CC(C)(C)NS(C)(=O)=O` [IRM, N-{2-[4-amino-2-(ethoxymethyl)-1H-imidazo[4,5-c]quinolin-1-yl]-1,1-dimethylethyl}methanesulfonamide], the EC50 in [1] is greater than 300 µM; in data set [4], roughly 3000 nM; in data set [9], greater than 300 µM; in data set [11] it was greater than 150 µM. The values for the CC50 in data set [2], in [7] and in data set [10] were greater than 300 µM, greater than 300 µM and greater than 150 µM, respectively. Moreover, the “SI (CC50/EC50)” value was 0 in data set [3], 0 in [6], 0 in data set [8] and 50 in [12]. Moreover, the “viral titer present in the lung” value in [5] was “dramatically reduced”. In [5], the “viral titer present in the nasal cavity” value is “dramatically reduced”. Further, the “antiviral activity (in words)” value in [12] is “significant direct activity”.

With `NC(=O)c1ncn([C@@H]2O[C@H](CO)[C@@H](O)[C@H]2O)n1` [Ribavirin, ribavirin, reference compound], the EC50 was 14 µM in data set [1] and 24 µM in data set [9]. The CC50 in data set [2] and in [7] was greater than 450 µM each time. The “SI (CC50/EC50)” value is greater than 32 in data set [6] and greater than 19 in [8].

The values are drawn from patent US20050070460A1 (priority 2003, published 2005).
